Measured values: patent publication US20020002171A1, “Materials and methods for killing nematodes and nematode eggs” (priority 2000, published 2002)

Test system: Caenorhabditis elegans
Test: C. elegans L1 nematicidal dose response in 96-well plates, 5 day visual score (Example 2; same procedure for Example 7, Table 3)
Assay type: in vivo
Parameters: key to 5 Day Visual Score V1 / 5 Day Visual Score V2 / 5 Day Visual Score V3 / 5 Day Visual Score V4 / 5 Day Visual Score V6 / 5 Day Visual Score V5 / Initial HTS Run Visual Score / Follow-up HTS Run Visual Score: Dead: only stiff L1s (no movement); Dead (L4): worms are dead, but at a later larval stage; majority of worms are L1 (based on size) worms move when plate is tapped; majority of worms are L2 (based on size); majority of worms are L3 (based on size); majority of worms are L4 (based on size); AD: majority of worms are adult; #AD: 5 adult worms or less; B!: sterile (0-25 progeny); B: low broodsize (25-100 progeny); ˜B: moderate broodsize (100-250 progeny); <: reduced broodsize (250-500 progeny); OK: no effect (˜1000+ progeny)
Method in brief: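 Scoring was by eye at 100× on day 5, after incubation at 20° C, of 20 C. elegans L1s per well fed 1% E. coli HB101 in NGM. Compound columns V1–V6 spanned 70 μM to 0.3 μM in 3-fold steps, with 1.4% DMSO in the top well and as control.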

[1] = dose response, dilution V1, 5 day
[2] = dose response, dilution V2, 5 day
[3] = dose response, dilution V3, 5 day
[4] = dose response, dilution V4, 5 day
[5] = dose response, dilution V5, 5 day
[6] = dose response, dilution V6, 5 day
[7] = dose response, dilution V1, day 5
[8] = dose response, dilution V3, day 5
[9] = dose response, dilution V4, day 5
[10] = dose response, dilution V5, day 5
[11] = dose response, dilution V6, day 5
[12] = 2.6 μM, C. elegans L1, scored day 5
[13] = 7.8 μM, C. elegans L1, scored day 5
[14] = 23.3 μM, C. elegans L1, scored day 5
[15] = 70 μM, C. elegans L1, scored day 5
[16] = dose response, dilution V2, day 5

| Structure (SMILES) | Follow-up HTS Run % Run | Follow-up HTS Run Visual Score | Follow-up HTS Run mOD | Initial HTS Run % Run | Initial HTS Run Visual Score | Initial HTS Run mOD | 5 Day Visual Score V1 [7] | 5 Day Visual Score V3 [8] | 5 Day Visual Score V4 [9] | 5 Day Visual Score V5 [10] | 5 Day Visual Score V6 [11] | 5 Day Visual Score V2 [16] | further results |
| --- | --- | --- | --- | --- | --- | --- | --- | --- | --- | --- | --- | --- | --- |
| CCCCC(CC)CN(CC(CC)CCCC)c1nc(NC2CCCCCCCCCCC2)ns1 (centres unmarked) [compound 331] | 85% | Dead | 137 mOD | 95% | Dead | 104 mOD |  |  |  |  |  |  | 5 Day Visual Score V1 [1]: Dead; 5 Day Visual Score V2 [2]: Dead; 5 Day Visual Score V3 [3]: Dead; 5 Day Visual Score V4 [4]: OK (no effect (˜1000+ progeny)); 5 Day Visual Score V5 [5]: OK (no effect (˜1000+ progeny)); 5 Day Visual Score V6 [6]: OK (no effect (˜1000+ progeny)) |
| CCOC(=O)CCN(Cc1ccccc1)c1nc(N2CCN(c3c(C)cccc3C)CC2)ns1 [compound 233] | 93% | Dead | 150 mOD | 113% | 1AD/B | 124 mOD | Dead | ˜B (moderate broodsize (100-250 progeny)) | OK (no effect (˜1000+ progeny)) | OK (no effect (˜1000+ progeny)) | OK (no effect (˜1000+ progeny)) |  |  |
| OCCN(CCO)c1nc(NCc2ccc(C(F)(F)F)cc2)ns1 [compound 254] | 113% | L2 - Dead L3 | 182 mOD | 105% | Dead(L3) | 116 mOD | Dead(L3) | < (reduced broodsize (250-500 progeny)) | OK (no effect (˜1000+ progeny)) | OK (no effect (˜1000+ progeny)) | OK (no effect (˜1000+ progeny)) |  |  |
| C=CCN(CC=C)c1nc(NC2CCCCCCCCCCC2)ns1 [compound 334] | 88% |  | 141 mOD | 98% | Dead | 108 mOD |  |  |  |  |  |  | 5 Day Visual Score V1 [1]: Dead; 5 Day Visual Score V2 [2]: Dead; 5 Day Visual Score V4 [4]: OK (no effect (˜1000+ progeny)); 5 Day Visual Score V5 [5]: OK (no effect (˜1000+ progeny)); 5 Day Visual Score V6 [6]: OK (no effect (˜1000+ progeny)) |
| CCOc1ccccc1C1=NOC(c2cccc3ccccc23)C1C(=O)NCc1ccc(OC(F)(F)F)cc1 (centres unmarked) [AKC 105] |  |  |  |  |  |  |  |  |  |  |  |  | 5 Day Visual Score V4 [12]: L2/Dead(L; 5 Day Visual Score V3 [13]: L2/Dead(L3); 5 Day Visual Score V2 [14]: L2/Dead(L3); 5 Day Visual Score V1 [15]: L2/Dead(L3) |
| CCOC(=O)CCN(Cc1ccccc1)c1nc(NCCc2ccc(F)cc2)ns1 [compound 242] | 87% |  | 140 mOD | 106% | Dead (L3?) | 117 mOD |  | OK (no effect (˜1000+ progeny)) | OK (no effect (˜1000+ progeny)) | OK (no effect (˜1000+ progeny)) | OK (no effect (˜1000+ progeny)) | B (low broodsize (25-100 progeny)) |  |
| O=C(Nc1ccc(Br)cc1)N1CCC(c2nc(-c3ccccc3)no2)CC1 [AKC 108] |  |  |  |  |  |  |  |  |  |  |  |  | 5 Day Visual Score V4 [12]: L1; 5 Day Visual Score V3 [13]: L1; 5 Day Visual Score V2 [14]: Dead; 5 Day Visual Score V1 [15]: Dead |
| CC(C)(C)C1=NOC(c2ccc(-c3ccccc3)cc2)C1C(=O)NCCc1ccccc1F (centres unmarked) [AKC 120] |  |  |  |  |  |  |  |  |  |  |  |  | 5 Day Visual Score V6 (0.3 μM, C. elegans L1, scored day 5): OK (no effect (˜1000+ progeny)); 5 Day Visual Score V5 (0.9 μM, C. elegans L1, scored day 5): #AD/˜B; 5 Day Visual Score V3 [13]: L1; 5 Day Visual Score V1 [15]: L1 |
| CCN(Cc1ccccc1)c1nc(N2CCN(c3ccc(F)cc3)CC2)ns1 [compound 237] | 117% |  | 189 mOD | 133% |  | 146 mOD | L1 | L1 | < (reduced broodsize (250-500 progeny)) | OK (no effect (˜1000+ progeny)) | OK (no effect (˜1000+ progeny)) | L1 |  |
| CCCCCCCCCCNc1nsc(N(C)Cc2ccccc2)n1 [compound 284] | 122% | Dead | 196 mOD | 142% | Dead | 156 mOD | Dead | Dead | ˜B (moderate broodsize (100-250 progeny)) | OK (no effect (˜1000+ progeny)) | OK (no effect (˜1000+ progeny)) | Dead |  |
| CCCCCCCCCCCCCCCCCCN(C)c1nc(NCc2ccc(C(F)(F)F)cc2)ns1 [compound 306] | 102% | L1 | 165 mOD | 107% |  | 118 mOD | L1 |  | OK (no effect (˜1000+ progeny)) | OK (no effect (˜1000+ progeny)) | OK (no effect (˜1000+ progeny)) | L1 |  |
| CCOc1cc(CCNc2nsc(N3CCN(c4ccc(F)cc4)CC3)n2)ccc1OC [compound 267] | 99% | Dead | 160 mOD | 94% | Dead | 103 mOD | Dead | < (reduced broodsize (250-500 progeny)) | OK (no effect (˜1000+ progeny)) | OK (no effect (˜1000+ progeny)) | OK (no effect (˜1000+ progeny)) | L1 |  |
| CCN(Cc1ccccc1)c1nc(NCc2ccccc2C(F)(F)F)ns1 [compound 320] | 118% |  | 190 mOD | 102% |  | 112 mOD |  |  |  |  |  |  | 5 Day Visual Score V1 [1]: L4#AD/B!; 5 Day Visual Score V2 [2]: < (reduced broodsize (250-500 progeny)); 5 Day Visual Score V3 [3]: OK (no effect (˜1000+ progeny)); 5 Day Visual Score V4 [4]: OK (no effect (˜1000+ progeny)); 5 Day Visual Score V5 [5]: OK (no effect (˜1000+ progeny)); 5 Day Visual Score V6 [6]: OK (no effect (˜1000+ progeny)) |
| FC(F)(F)c1ccc(CNc2nsc(N3CCN(c4cccc(C(F)(F)F)c4)CC3)n2)cc1 [compound 250] | 125% |  | 201 mOD | 108% | L2 - (Dead L3) | 119 mOD | L3/Dead(L3) | B (low broodsize (25-100 progeny)) | OK (no effect (˜1000+ progeny)) | OK (no effect (˜1000+ progeny)) | OK (no effect (˜1000+ progeny)) | L4/#AD/B! |  |
